Assay results reported in ChEMBL document CHEMBL5465560, “Selectivity Literature for EUbOPEN Chemogenomic Library” (2024).

Key:
[1] = biological target: T1, Serine/threonine-protein kinase D1 (Homo sapiens) (UniProt Q15139); conditions: at 10 µM
T1 sequence (whole entry): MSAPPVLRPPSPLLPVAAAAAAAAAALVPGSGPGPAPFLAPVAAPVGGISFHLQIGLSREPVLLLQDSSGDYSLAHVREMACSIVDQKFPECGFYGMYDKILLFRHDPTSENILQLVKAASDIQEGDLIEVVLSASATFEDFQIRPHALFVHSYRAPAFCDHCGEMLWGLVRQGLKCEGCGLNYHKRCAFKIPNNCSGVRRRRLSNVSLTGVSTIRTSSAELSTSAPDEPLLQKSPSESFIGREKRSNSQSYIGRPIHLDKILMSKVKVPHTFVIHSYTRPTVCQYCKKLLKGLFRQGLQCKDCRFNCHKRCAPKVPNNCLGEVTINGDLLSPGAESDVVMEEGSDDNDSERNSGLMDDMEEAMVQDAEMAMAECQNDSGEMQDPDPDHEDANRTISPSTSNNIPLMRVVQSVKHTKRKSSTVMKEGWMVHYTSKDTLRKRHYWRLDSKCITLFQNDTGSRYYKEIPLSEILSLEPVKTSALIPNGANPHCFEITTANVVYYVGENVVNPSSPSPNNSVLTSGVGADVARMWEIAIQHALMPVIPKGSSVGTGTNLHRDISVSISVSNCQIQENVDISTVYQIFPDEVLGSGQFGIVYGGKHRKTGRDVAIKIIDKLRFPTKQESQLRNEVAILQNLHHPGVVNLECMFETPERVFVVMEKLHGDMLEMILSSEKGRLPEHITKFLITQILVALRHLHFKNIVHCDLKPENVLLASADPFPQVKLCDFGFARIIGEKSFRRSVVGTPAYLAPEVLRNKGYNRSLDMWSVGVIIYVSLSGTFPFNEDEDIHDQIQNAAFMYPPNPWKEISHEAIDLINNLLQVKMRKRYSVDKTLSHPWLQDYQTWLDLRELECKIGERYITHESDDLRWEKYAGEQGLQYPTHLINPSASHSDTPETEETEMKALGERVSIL

[2] = biological target: T2, Non-receptor tyrosine-protein kinase TNK1 (Homo sapiens) (UniProt Q13470); experiment: Selectivity interaction (KinomeScan (DiscoverX)) EUB0000695a TNK1; conditions: at 100 nM
T2 sequence (whole entry): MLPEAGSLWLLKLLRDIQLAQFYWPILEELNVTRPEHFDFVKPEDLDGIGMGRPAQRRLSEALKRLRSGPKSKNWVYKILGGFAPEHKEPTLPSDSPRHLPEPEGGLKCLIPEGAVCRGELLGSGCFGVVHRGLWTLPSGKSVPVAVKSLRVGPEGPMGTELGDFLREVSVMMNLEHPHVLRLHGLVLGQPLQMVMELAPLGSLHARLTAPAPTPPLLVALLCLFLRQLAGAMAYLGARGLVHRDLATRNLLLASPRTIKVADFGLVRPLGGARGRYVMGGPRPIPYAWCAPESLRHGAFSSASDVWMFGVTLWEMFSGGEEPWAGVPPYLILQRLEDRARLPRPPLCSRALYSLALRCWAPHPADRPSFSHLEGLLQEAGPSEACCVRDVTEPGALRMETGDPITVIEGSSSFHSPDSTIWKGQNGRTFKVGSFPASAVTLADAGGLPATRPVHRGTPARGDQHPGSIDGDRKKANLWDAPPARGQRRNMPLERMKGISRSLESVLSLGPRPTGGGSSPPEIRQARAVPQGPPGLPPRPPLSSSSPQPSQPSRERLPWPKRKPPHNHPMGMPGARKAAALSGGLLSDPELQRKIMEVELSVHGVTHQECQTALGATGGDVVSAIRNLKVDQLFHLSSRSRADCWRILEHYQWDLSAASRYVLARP

[3] = biological target: Mitogen-activated protein kinase kinase kinase kinase 1 (Homo sapiens) (UniProt Q92918); experiment: Selectivity interaction (KinomeScan (DiscoverX)) EUB0001079a MAP4K1; conditions: at 1 µM
[4] = biological target: Non-receptor tyrosine-protein kinase TYK2 (Homo sapiens, UniProt P29597); experiment: Selectivity interaction (Kinase panel (Z-LYTE Assay)) EUB0001632a TYK2; conditions: at 10 µM
[5] = biological target: T3, Tyrosine-protein kinase Mer (Homo sapiens) (UniProt Q12866); experiment: Selectivity interaction (LanthaScreen Eu Kinase Binding Assay) EUB0001632a MERTK; conditions: at 10 µM
T3 sequence (whole entry): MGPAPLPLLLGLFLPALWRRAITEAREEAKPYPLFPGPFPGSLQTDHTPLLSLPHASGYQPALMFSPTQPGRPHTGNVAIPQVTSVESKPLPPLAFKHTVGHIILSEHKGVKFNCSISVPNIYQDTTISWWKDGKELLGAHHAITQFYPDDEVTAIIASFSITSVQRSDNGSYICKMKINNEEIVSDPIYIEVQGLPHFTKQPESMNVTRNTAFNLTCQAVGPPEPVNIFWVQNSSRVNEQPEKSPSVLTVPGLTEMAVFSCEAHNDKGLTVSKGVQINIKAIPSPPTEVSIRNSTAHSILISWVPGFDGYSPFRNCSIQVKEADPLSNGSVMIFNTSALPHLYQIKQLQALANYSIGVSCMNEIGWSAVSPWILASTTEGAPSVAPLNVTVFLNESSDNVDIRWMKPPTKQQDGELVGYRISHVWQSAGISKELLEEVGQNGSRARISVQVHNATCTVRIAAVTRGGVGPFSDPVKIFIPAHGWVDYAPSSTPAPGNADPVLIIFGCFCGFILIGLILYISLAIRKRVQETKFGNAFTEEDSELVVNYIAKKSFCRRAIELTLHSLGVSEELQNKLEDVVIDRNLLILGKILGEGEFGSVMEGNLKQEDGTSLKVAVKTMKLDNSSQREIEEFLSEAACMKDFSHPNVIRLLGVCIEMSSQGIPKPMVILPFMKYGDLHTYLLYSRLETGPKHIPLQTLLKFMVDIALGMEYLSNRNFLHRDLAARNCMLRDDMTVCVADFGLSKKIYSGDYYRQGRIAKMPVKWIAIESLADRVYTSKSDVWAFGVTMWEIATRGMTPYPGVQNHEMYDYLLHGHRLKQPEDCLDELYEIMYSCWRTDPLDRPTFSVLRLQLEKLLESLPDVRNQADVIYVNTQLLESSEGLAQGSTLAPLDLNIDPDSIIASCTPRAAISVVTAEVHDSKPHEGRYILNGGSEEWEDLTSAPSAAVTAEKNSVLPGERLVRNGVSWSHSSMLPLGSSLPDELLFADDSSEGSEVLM

[6] = biological target: Vasopressin V1a receptor (Homo sapiens) (UniProt P37288); experiment: Selectivity interaction (Eurofins CEREP Diversity Profile (receptors and ion channels)) EUB0000279b AVPR1A; conditions: at 10 µM
[7] = biological target: ALK tyrosine kinase receptor (Homo sapiens, UniProt Q9UM73); experiment: Selectivity interaction (SelectScreen profiling (Invitrogen)) EUB0000607a ALK; conditions: at 2 µM
[8] = biological target: Mitogen-activated protein kinase 3 (Homo sapiens, UniProt P27361); experiment: Selectivity interaction (KinomeScan (DiscoverX)) EUB0000618a MAPK3; conditions: at 10 µM
Chain of Mitogen-activated protein kinase 3 (P27361 whole entry): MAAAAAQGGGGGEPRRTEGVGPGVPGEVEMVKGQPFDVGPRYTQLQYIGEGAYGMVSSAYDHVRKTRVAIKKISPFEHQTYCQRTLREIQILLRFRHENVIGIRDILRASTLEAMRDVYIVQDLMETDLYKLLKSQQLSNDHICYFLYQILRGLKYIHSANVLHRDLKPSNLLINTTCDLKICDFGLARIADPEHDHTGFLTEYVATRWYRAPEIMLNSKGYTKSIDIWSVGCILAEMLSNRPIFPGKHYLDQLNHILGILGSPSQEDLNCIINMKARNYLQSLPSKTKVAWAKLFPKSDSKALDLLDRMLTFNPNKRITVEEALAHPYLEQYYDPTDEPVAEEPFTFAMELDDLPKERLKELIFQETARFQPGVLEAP

Chain of Non-receptor tyrosine-protein kinase TYK2 (P29597 whole entry): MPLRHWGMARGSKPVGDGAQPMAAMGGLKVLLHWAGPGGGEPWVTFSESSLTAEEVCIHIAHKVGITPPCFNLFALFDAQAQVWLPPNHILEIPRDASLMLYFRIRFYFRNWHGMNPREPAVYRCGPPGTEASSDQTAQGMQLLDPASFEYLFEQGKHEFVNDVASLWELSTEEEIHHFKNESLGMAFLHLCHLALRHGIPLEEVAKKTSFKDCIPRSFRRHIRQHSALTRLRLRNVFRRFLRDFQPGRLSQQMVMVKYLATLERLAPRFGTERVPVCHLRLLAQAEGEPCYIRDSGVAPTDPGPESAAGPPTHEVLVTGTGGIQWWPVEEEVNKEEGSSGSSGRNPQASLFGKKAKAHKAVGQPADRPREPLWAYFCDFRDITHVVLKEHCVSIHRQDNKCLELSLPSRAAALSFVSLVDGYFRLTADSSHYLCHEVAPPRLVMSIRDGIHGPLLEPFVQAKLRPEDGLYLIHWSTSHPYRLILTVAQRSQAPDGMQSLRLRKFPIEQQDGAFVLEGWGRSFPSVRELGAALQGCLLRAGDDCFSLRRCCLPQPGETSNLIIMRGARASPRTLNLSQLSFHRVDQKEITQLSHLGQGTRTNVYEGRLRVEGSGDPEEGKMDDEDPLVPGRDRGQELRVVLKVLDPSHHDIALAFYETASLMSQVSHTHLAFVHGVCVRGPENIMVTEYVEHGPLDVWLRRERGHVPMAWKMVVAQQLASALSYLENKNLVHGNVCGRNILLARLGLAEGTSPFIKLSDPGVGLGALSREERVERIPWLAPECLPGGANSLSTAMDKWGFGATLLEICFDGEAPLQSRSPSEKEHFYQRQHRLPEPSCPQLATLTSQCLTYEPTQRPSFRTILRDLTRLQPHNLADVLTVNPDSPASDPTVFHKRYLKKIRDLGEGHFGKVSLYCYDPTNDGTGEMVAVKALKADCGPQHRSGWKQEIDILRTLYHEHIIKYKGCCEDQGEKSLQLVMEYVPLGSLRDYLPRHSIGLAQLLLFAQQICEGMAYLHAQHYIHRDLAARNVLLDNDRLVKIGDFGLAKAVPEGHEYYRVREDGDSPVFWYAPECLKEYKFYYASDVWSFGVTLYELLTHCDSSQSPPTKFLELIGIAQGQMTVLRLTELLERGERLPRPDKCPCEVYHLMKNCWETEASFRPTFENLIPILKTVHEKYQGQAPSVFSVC
Chain of Vasopressin V1a receptor (Homo sapiens) (P37288 whole entry, looked up): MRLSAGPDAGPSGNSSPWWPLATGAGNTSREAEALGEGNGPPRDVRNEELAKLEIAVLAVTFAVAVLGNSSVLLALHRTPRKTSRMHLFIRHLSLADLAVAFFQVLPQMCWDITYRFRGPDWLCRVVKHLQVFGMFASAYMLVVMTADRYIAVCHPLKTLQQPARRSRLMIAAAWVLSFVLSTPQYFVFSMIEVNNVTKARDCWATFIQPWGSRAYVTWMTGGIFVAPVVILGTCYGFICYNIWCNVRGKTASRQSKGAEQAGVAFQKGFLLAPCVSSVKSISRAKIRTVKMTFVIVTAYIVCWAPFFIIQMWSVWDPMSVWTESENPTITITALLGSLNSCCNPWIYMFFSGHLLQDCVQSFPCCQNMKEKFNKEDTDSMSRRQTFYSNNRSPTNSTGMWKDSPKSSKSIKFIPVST
Chain of Mitogen-activated protein kinase kinase kinase kinase 1 (Homo sapiens) (Q92918 whole entry, looked up): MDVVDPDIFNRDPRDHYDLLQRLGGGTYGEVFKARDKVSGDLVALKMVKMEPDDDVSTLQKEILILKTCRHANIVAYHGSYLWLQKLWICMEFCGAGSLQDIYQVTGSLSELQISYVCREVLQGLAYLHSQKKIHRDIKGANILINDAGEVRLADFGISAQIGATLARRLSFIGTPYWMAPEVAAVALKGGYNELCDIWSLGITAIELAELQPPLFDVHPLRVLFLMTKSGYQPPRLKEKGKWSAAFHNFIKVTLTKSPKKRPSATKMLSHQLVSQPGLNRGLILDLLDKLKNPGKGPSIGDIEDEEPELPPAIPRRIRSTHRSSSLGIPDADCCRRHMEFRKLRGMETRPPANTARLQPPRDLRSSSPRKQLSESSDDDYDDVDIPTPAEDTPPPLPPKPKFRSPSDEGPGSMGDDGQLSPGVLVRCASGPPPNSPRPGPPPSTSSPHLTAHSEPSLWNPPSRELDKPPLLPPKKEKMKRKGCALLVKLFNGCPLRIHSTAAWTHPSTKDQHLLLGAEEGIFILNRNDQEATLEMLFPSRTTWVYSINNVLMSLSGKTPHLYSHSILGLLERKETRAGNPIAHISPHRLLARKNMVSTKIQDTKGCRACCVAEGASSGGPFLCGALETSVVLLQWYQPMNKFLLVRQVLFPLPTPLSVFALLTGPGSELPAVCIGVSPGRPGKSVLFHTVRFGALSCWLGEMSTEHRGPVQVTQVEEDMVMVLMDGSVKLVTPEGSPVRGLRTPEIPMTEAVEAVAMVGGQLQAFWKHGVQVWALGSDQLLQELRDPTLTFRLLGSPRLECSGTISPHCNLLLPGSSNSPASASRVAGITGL
Chain of ALK tyrosine kinase receptor (Q9UM73 19-1620 limits assumed): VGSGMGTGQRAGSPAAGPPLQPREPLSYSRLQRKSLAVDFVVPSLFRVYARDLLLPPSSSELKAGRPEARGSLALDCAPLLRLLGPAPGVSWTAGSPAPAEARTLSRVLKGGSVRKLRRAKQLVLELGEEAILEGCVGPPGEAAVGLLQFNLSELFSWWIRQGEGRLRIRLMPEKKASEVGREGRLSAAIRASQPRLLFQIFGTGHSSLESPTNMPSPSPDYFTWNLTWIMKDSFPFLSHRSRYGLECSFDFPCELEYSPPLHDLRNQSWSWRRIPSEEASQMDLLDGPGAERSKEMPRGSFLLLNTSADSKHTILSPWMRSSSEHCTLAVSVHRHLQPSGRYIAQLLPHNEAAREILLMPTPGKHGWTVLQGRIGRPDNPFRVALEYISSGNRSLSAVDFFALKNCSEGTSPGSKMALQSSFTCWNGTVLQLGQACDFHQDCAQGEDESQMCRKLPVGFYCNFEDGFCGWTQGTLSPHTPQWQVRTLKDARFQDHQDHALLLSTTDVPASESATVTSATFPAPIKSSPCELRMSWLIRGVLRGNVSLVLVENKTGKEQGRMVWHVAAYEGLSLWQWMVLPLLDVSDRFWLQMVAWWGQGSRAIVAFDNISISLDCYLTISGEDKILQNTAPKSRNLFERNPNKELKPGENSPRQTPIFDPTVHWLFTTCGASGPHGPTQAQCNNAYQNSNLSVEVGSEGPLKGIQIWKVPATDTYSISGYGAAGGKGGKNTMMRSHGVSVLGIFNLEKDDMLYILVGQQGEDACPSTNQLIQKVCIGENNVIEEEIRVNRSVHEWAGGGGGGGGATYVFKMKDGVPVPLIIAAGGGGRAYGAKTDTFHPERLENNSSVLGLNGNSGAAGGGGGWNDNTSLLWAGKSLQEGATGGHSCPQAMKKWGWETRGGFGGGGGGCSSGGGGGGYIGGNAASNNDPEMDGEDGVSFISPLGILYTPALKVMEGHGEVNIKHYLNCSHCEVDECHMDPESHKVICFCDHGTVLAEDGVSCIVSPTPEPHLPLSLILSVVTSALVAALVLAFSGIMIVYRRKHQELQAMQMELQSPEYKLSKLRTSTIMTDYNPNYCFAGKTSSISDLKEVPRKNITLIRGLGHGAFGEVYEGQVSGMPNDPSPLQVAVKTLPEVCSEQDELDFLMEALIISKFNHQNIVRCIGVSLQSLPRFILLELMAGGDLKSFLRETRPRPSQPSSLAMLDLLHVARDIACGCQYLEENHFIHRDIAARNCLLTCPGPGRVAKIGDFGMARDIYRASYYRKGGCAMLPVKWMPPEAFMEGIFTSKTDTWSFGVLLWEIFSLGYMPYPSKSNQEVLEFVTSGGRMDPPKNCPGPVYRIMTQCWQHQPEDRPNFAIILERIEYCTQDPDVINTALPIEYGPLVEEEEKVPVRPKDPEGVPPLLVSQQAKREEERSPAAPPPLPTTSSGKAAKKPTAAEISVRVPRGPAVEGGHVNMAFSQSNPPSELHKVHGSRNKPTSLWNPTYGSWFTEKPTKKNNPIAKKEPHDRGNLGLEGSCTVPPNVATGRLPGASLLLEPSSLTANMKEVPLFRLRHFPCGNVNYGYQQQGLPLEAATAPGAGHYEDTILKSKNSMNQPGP

## COCC(=O)NC/C=C/c1ccc2ncnc(Nc3ccc(Oc4ccc(C)nc4)c(C)c3)c2c1 [CP-724714]
[1]
  % of control: 85%

## Cc1cc(F)c(C(=O)Nc2cccc(-c3nncn3C(C)C)n2)cc1-n1cnc(C2CC2)c1
[2]
  % of control: 100%

## Nc1cnc(N2CCc3cc(S(=O)(=O)Nc4c(F)cc(Cl)cc4F)cc(N4CCCC4=O)c32)nc1 [TP-020n]
[3]
  % of control: 83%

## Cn1cc(-n2cnc3c(NCc4nc5cc(Cl)c(Cl)cc5[nH]4)nc(N4CCOCC4)nc32)cn1
[4]
  % of control: 2.01%
[5]
  % of inhibition: -48.1%

## CC(=O)c1cc(-c2ccccc2OCC2CC2)c2ncccn12
[6]
  % of control: 89%

## CNC(=O)Nc1ccc(-c2nc(N3CC4CCC(C3)O4)c3cnn(C4CCC5(CC4)OCCO5)c3n2)cc1
[7]
  % of inhibition: 0%

## O[C@H]1CC[C@H](Nc2ncc3nc(Nc4c(F)cc(F)cc4F)n([C@H]4CCOC4)c3n2)CC1
[8]
  % of control: 32%
